The test system of one test is KB. Briefly: Antitumor activity against human KB cells assessed as inhibition of cell growth measured upto 96 hrs in presence of adenosine by Cell titer blue assay. Type of test: functional, cell-based. For orientation: Alamar Blue is a resazurin reagent that responds to reducing activity.
The test system of a further test is CHO. As to the kind of experiment: cells. Particulars: Cricetulus griseus, 96 h.

Structures are written as SMILES. Activity calls are given as the source filed them. The rule behind the calls is not given here.

The IC50 is the concentration needed to halve the response being measured. Low readings indicate greater potency, high ones weaker potency.

In the case of `Nc1nc2[nH]c(CCCc3ccc(C(=O)N[C@@H](CCC(=O)O)C(=O)O)s3)cc2c(=O)[nH]1`, in the test with KB, the result was inactive. Compound `Nc1nc2[nH]cc(CCc3ccc(C(=O)N[C@@H](CCC(=O)O)C(=O)O)cc3)c2c(=O)[nH]1` [PEMETREXED] displayed an IC50 in the test on CHO of 60 nM.

The record behind these values is ChEMBL document CHEMBL5360656, “Structure-Based Design of Transport-Specific Multitargeted One-Carbon Metabolism Inhibitors in Cytosol and Mitochondria” (J Med Chem, 2023).
